The record followed here is PMC11532494 (Nature Communications, 2024).

One experiment deals with KpHdaH (1b) (Klebsiella pneumoniae, UniProt A0A377Z5F6). It is filed as biochemical. The following applies: KpHdaH (1b).
The next experiment deals with T1, BsAcuC (2c) (Bacillus subtilis, UniProt P39067).
T1 construct: made in house; host or cells: E. coli BL21 (DE3)
T1 sequence (P39067 1-387): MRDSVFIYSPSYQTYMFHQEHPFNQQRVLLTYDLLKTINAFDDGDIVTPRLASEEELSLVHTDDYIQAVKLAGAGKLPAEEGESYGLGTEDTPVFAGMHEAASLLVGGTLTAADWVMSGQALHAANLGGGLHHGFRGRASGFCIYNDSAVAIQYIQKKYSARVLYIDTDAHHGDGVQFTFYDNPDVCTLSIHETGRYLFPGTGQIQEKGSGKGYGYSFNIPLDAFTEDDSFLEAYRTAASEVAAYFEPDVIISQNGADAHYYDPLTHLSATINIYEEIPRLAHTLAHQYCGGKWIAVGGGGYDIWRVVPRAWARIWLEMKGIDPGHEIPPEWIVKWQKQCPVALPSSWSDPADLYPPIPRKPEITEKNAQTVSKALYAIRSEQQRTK
The experiment can be described thus: Substrate screening assay (acyl-peptide-AMC). The format is biochemical. The following applies: BsAcuC (2c); for [AMC]: Transform RFU in [AMC]. As to the method:
(§1) Experiments with SIRT2 and SIRT5 were supplemented with NAD^+ (500 µM). Thereafter, a solution of trypsin (25 µL, 5.0 mg/mL; final concentration of 2.5 mg/mL) was added, and the development of the assay was allowed to proceed for 90 min at room temperature before fluorescence analysis. […] To this end, a single category is given to all conversions >48% on the heatmap. […] For the H4-derived peptide LGKbio no positive control was available.

The subject of a further experiment is Controls. The experiment can be described thus: Substrate screening assay (acyl-peptide-AMC), control enzymes. The format is biochemical.
A further experiment relates to VsHdaH (1b). It is filed as biochemical, Vibrio sp. The following applies: VKDAC.
The target of experiment [1] is T2, PsApaH (4) (Pseudomonas sp. M30-35, UniProt A0A1Y0KY79). The format is biochemical. The following applies: PsApaH (4). As for the experimental part:
as §1

Another experiment has as its system VcHdaH (5b). The format is biochemical, Vibrio cholerae. The note with it: VcHdaH (5b); for [AMC]: Transform RFU in [AMC].
Another experiment addresses PA1409 (Pseudomonas aeruginosa, UniProt Q9I3T5). The experiment can be described thus: Acetyl-polyamine deacetylase assay (positive control). It is filed as biochemical. The following applies: for [acetate] (individual samples): PA1409, acetate released from acetyl-polyamine substrate, Sample 1-2; for [acetate] mean: mean of samples.
Experiment [2] has as its target T2, PsApaH (4). The experiment can be described thus: Acetyl-polyamine deacetylase assay. The note with it: for [acetate] (individual samples): acetate released from acetyl-polyamine substrate, Sample 1-3; for [acetate] mean: mean of samples. It is filed as biochemical.
Target sequence in this assay (A0A1Y0KY79 1-342 limits assumed): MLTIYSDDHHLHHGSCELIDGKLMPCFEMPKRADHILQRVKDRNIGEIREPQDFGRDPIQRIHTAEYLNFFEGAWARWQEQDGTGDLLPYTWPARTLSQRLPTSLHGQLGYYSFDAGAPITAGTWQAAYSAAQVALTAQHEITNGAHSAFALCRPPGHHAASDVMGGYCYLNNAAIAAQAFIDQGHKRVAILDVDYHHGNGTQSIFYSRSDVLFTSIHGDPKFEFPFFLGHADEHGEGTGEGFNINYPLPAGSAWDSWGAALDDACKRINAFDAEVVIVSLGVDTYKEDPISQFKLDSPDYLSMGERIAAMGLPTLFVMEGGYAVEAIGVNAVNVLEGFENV

“And” between values parts separate entries of the source, which are not always exact repeats. Identical values can stand only once. Like-named read-outs stand apart in the source and are kept apart here. No end group written: not given here. *: point of attachment. AMC = Cc1cc(=O)oc2cc(N*)ccc12

Sequence of PA1409 (Q9I3T5 whole entry): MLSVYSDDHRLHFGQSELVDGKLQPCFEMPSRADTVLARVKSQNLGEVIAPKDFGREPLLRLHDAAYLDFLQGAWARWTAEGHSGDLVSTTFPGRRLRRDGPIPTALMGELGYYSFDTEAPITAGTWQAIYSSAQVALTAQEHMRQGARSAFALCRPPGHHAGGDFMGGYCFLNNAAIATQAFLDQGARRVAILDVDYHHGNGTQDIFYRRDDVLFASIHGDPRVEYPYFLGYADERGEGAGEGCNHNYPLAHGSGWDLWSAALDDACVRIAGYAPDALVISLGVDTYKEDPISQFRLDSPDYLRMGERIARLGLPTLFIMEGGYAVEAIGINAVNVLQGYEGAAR

As for “QPKKlau (QPKK-{AMC}; not fully specified (residue 4); printed as QPKKlau; also: lauroyl-lysine (which Lys not given here); UniProt P04637 317-320, looked up, fragment)”, the “Relative Fluorescene Units (RFU)” value in the experiment with KpHdaH (1b) (Sample 1) was -177 RFU; with KpHdaH (1b) (Sample 2), -96 RFU; in the experiment with KpHdaH (1b) (Transform RFU*2, Sample 1), -354 RFU; with KpHdaH (1b) (Transform RFU*2, Sample 2), -192 RFU; in the experiment with BsAcuC (2c) (Sample 1) it was 1004 RFU; in the experiment with BsAcuC (2c) (Sample 2) it was 695 RFU. In addition, the “Relative Fluorescene Units (RFU)” value in the experiment with BsAcuC (2c) (Transform RFU*2, Sample 1) is 2008 RFU; with BsAcuC (2c) (Transform RFU*2, Sample 2), 1390 RFU; in the experiment on VsHdaH (1b) (Transform RFU*2, Sample 1), -308 RFU; in the experiment on VsHdaH (1b) (Transform RFU*2, Sample 2) it was 12 RFU; in the experiment with VsHdaH (1b) (Sample 1), -154 RFU; with VsHdaH (1b) (Sample 2), 6 RFU. Moreover, the “Relative Fluorescene Units (RFU)” value with PsApaH (4) [1] (Sample 1) is given as 196 RFU; with PsApaH (4) [1] (Sample 2), 66 RFU; with PsApaH (4) [1] (Transform RFU*2, Sample 1), 392 RFU; with PsApaH (4) [1] (Transform RFU*2, Sample 2), 132 RFU; in the experiment with VcHdaH (5b) (Transform RFU*2, Sample 1), -230 RFU; in the experiment on VcHdaH (5b) (Transform RFU*2, Sample 2), -98 RFU. Also, the “Relative Fluorescene Units (RFU)” value in the experiment with VcHdaH (5b) (Sample 1) was -115 RFU; in the experiment on VcHdaH (5b) (Sample 2), -49 RFU. The “[AMC]” value is 980.47 nM with BsAcuC (2c) (Sample 1); 678.71 nM in the experiment with BsAcuC (2c) (Sample 2); 10.32715 µM and 12.34863 µM with Controls; -112.30 nM with VcHdaH (5b) (Sample 1); -47.85 nM with VcHdaH (5b) (Sample 2).
Consider “QPKKpal (QPKK-{AMC}; not fully specified (residue 4); printed as QPKKpal; also: palmitoyl-lysine (which Lys not given here); UniProt P04637 317-320, looked up, fragment)”, for which the “Relative Fluorescene Units (RFU)” value is recorded as 9 RFU in the experiment with KpHdaH (1b) (Sample 1); -4 RFU with KpHdaH (1b) (Sample 2); 18 RFU with KpHdaH (1b) (Transform RFU*2, Sample 1); -8 RFU in the experiment with KpHdaH (1b) (Transform RFU*2, Sample 2); 139 RFU in the experiment with BsAcuC (2c) (Sample 1); 15 RFU in the experiment with BsAcuC (2c) (Sample 2). Moreover, the “Relative Fluorescene Units (RFU)” value was 278 RFU with BsAcuC (2c) (Transform RFU*2, Sample 1); 30 RFU with BsAcuC (2c) (Transform RFU*2, Sample 2); 82 RFU with VsHdaH (1b) (Transform RFU*2, Sample 1); -38 RFU in the experiment with VsHdaH (1b) (Transform RFU*2, Sample 2); 41 RFU in the experiment on VsHdaH (1b) (Sample 1); -19 RFU with VsHdaH (1b) (Sample 2). Further, the “Relative Fluorescene Units (RFU)” value with PsApaH (4) [1] (Sample 1) was 40 RFU; with PsApaH (4) [1] (Sample 2), 14 RFU; with PsApaH (4) [1] (Transform RFU*2, Sample 1), 80 RFU; with PsApaH (4) [1] (Transform RFU*2, Sample 2), 28 RFU; in the experiment on VcHdaH (5b) (Transform RFU*2, Sample 1), 46 RFU; in the experiment on VcHdaH (5b) (Transform RFU*2, Sample 2) it was -80 RFU. In addition, the “Relative Fluorescene Units (RFU)” value was 23 RFU with VcHdaH (5b) (Sample 1) and -40 RFU with VcHdaH (5b) (Sample 2). Moreover, the “[AMC]” value with BsAcuC (2c) (Sample 1) was 135.74 nM; with BsAcuC (2c) (Sample 2) it was 14.65 nM; in the experiment on Controls it was 8.07129 µM and 10.51367 µM; with VcHdaH (5b) (Sample 1), 22.46 nM; with VcHdaH (5b) (Sample 2), -39.06 nM.
In the case of “QPKKhex (QPKK-{AMC}; not fully specified (residue 4); printed as QPKKhex; also: hexanoyl-lysine (which Lys not given here); UniProt P04637 317-320, looked up, fragment)”, the “Relative Fluorescene Units (RFU)” value with KpHdaH (1b) (Sample 1) turned out to be 170 RFU; with KpHdaH (1b) (Sample 2), 14 RFU; in the experiment with KpHdaH (1b) (Transform RFU*2, Sample 1) it was 340 RFU; in the experiment with KpHdaH (1b) (Transform RFU*2, Sample 2), 28 RFU; with BsAcuC (2c) (Sample 1), 1720 RFU; in the experiment with BsAcuC (2c) (Sample 2) it was 1255 RFU. Also, the “Relative Fluorescene Units (RFU)” value is 3440 RFU in the experiment with BsAcuC (2c) (Transform RFU*2, Sample 1); 2510 RFU with BsAcuC (2c) (Transform RFU*2, Sample 2); 72 RFU in the experiment with VsHdaH (1b) (Transform RFU*2, Sample 1); 194 RFU in the experiment with VsHdaH (1b) (Transform RFU*2, Sample 2); 36 RFU with VsHdaH (1b) (Sample 1); 97 RFU in the experiment on VsHdaH (1b) (Sample 2). Besides, the “Relative Fluorescene Units (RFU)” value with PsApaH (4) [1] (Sample 1) is reported as 128 RFU; with PsApaH (4) [1] (Sample 2), 61 RFU; with PsApaH (4) [1] (Transform RFU*2, Sample 1), 256 RFU; with PsApaH (4) [1] (Transform RFU*2, Sample 2) it was 122 RFU; with VcHdaH (5b) (Transform RFU*2, Sample 1), -46 RFU; in the experiment on VcHdaH (5b) (Transform RFU*2, Sample 2), 248 RFU. For the same compound, the figures for the “Relative Fluorescene Units (RFU)” value in the experiment with VcHdaH (5b) (Sample 1) and in the experiment on VcHdaH (5b) (Sample 2) were -23 RFU and 124 RFU, respectively. The “[AMC]” value is 1679.69 nM with BsAcuC (2c) (Sample 1); 1225.59 nM in the experiment with BsAcuC (2c) (Sample 2); 3.01563 µM and 4.0166 µM with Controls; -22.46 nM with VcHdaH (5b) (Sample 1); 121.09 nM in the experiment with VcHdaH (5b) (Sample 2).
In the case of `CC(=O)NCCCNCCCCNCCCN` [N1/N12-acetylspermine], the “[acetate] (individual samples)” value is 3.921 mM and 3.216 mM at PA1409 (time 5 min); 19.1192 mM and 18.2382 mM on PA1409 (time 10 min); 34.0974 mM and 33.8331 mM on PA1409 (time 20 min); 42.3354 mM and 46.7408 mM on PA1409 (time 45 min); 2.337 mM and 2.446 mM and 2.554 mM at PsApaH (4) [2] (time 5 min); 4.0761 mM and 4.1848 mM and 4.12 mM at PsApaH (4) [2] (time 10 min). Also, the “[acetate] (individual samples)” value is 7.467 mM and 7.707 mM and 7.62 mM at PsApaH (4) [2] (time 20 min); 11.6196 mM and 12.1848 mM and 11.8587 mM on PsApaH (4) [2] (time 45 min). Further, the “[acetate] mean” value at PA1409 (PA1409, time 5 min) is given as 3.568 mM; on PA1409 (PA1409, time 10 min), 18.6787 mM; at PA1409 (PA1409, time 20 min), 33.9653 mM; at PA1409 (PA1409, time 45 min), 44.5381 mM; at PsApaH (4) [2] (time 5 min), 2.446 mM; at PsApaH (4) [2] (time 10 min), 4.127 mM. Further, the “[acetate] mean” value turned out to be 7.598 mM at PsApaH (4) [2] (time 20 min) and 11.8877 mM on PsApaH (4) [2] (time 45 min).
For `CC(=O)NCCCNCCCCN` [N1-acetylspermidine], the “[acetate] (individual samples)” value on PA1409 (time 5 min) was 1.542 mM and 1.762 mM; on PA1409 (time 10 min) it was 8.1499 mM and 9.163 mM; at PA1409 (time 20 min), 14.4496 mM and 14.5817 mM; at PA1409 (time 45 min), 15.6831 mM and 14.9782 mM; at PsApaH (4) [2] (time 5 min), 0.06608 mM and 0.08811 mM; at PsApaH (4) [2] (time 10 min), 0.06608 mM and 0.1322 mM. Besides, the “[acetate] (individual samples)” value at PsApaH (4) [2] (time 20 min) is 0.3304 mM and 0.3084 mM; at PsApaH (4) [2] (time 45 min), 0.2643 mM and 0.3965 mM. In addition, the “[acetate] mean” value came out at 1.652 mM at PA1409 (PA1409, time 5 min); 8.657 mM on PA1409 (PA1409, time 10 min); 14.5156 mM at PA1409 (PA1409, time 20 min); 15.3306 mM on PA1409 (PA1409, time 45 min); 0.07709 mM at PsApaH (4) [2] (time 5 min); 0.09912 mM at PsApaH (4) [2] (time 10 min). For the same compound, the figures for the “[acetate] mean” value on PsApaH (4) [2] (time 20 min) and at PsApaH (4) [2] (time 45 min) were 0.3194 mM and 0.3304 mM, respectively.
